# In patent US20130150399A1, “INHIBITORS OF THE UNFOLDED PROTEIN RESPONSE AND METHODS FOR THEIR USE” (The Board of Trustees of the Leland Stanford Junior …, priority 2006, published 2013):
# Legend:
# P58^IPK, DER-1 = assay: Northern blot of XBP-1s transcription targets, HT1080 cells; type: cell-based, human; details: 2 μM; Tm or hypoxia 24 hours
# Procedure: Cells were cultured in 10 cm plates, harvested, and total RNA recovered with Trizol (Invitrogen, San Diego, Calif.). Total RNA (10 μg) was resolved on a 1% agarose-formaldehyde gel. ^32P-labeled probes were prepared using the Rediprime II random-prime labeling kit (GE-Amersham, Buckinghamshire, UK). The primers used to PCR amplify probes are as follows. P58^IPK: 5′[…] 3′ (SEQ ID NO: 4); 5′ […] 3′ (SEQ ID NO: 5). DER-1: 5′ […] 3′ (SEQ ID NO: 6); 5′[…] 3′ (SEQ ID NO: 7). Blots were incubated with probe overnight, washed three times in 2×SSC/0.2% SDS, dried, and exposed to a phosphorimager screen overnight. Images were analyzed using ImageQuant software (Molecular Dynamics).
# A. XBP-luciferase reporter construct. Firefly luciferase was inserted downstream of the IRE1α splice site in human XBP-1 to enable the conditional translation of luciferase under ER stress in an IRE1α-dependent manner. […] After 24 hours, luciferase activity was analyzed in an automated plate reader. For each cell line, values are expressed as the percent inhibition of the median for Tm/Tg-treated wells, corrected for background. […] Values are expressed as the fold increases over uninduced levels. […] Cells were harvested, lysed, and analyzed by immunoblotting with antisera specific for HIF-1α (top), XBP-1s (middle) or actin (bottom). […] Total RNA was analyzed by Northern blotting using radiolabeled probes specific for P58^IPK or DER-1. […]
# RNAse A = target: T1, RNAse A (Bos taurus, UniProt P61823); assay: RNAse A activity assay; type: biochemical, bovine; details: >100-fold molar excess of irestatin 9389
# T1 construct: purchased Sigma
# XBP-luciferase reporter = assay: In vivo bioluminescence imaging of XBP-luciferase reporter tumor xenografts; set-up: species or system SCID mice
# Procedure: HT1080 fibrosarcoma cells (2×10^6) stably expressing the XBP-luciferase reporter were implanted s.c. into severe combined immune deficient (SCID) mice. Ten minutes prior to imaging, mice were injected i.p. with D-luciferin (150 mg/kg) solubilized in PBS. Optical bioluminescence imaging was performed using the IVIS charged-coupled device camera system (Caliper Life Sciences, Hopkinton, Mass.). Mice were imaged for 1-4 minutes per acquisition scan. Signal intensities were analyzed using Living Image software (Caliper).
# A. Irestatin 9389 impairs IRE1α activity in implanted tumor xenografts. Equal numbers (2×10^6) of XBP-luciferase or CMV-luciferase reporter cells were implanted s.c. into SCID mice. After one week, mice were treated with irestatin 9389 (50 mg/kg), followed by optical bioluminescence imaging. B. Inhibition of tumor growth by irestatin 9389. HT1080 s.c. tumor xenografts were established in SCID mice and allowed to reach a mean volume of 150 mm^3 before treatment. Irestatin 9389 (50 mg/kg) or vehicle control was administered q 2d by i.p. injection and continued for 2 weeks, for a total of 6 doses. Tumor volumes were calculated based on caliper measurements taken every 3-5 days. Data points represent the mean volume calculated from at least 7 tumors per group, with SEM shown in one direction. Mean mouse weights+/−SEM are shown in bottom graph. C.
# The increased sensitivity of irestatin-treated cells to hypoxic stress in vitro indicate that selective inhibition of IRE1α signaling could impact tumor growth. […] In contrast, XBP-1s was not detected in normal pancreas specimens (0/20), and infrequently observed in chronic pancreatitis (1/29) (FIG. 15). To explore the effects to irestatin 9389 in vivo, we first established animal dosing parameters using real-time bioluminescence imaging of SCID mice that had been implanted subcutaneously (s.c.) with tumor cells stably expressing the XBP-luciferase reporter. […] The XBP-luciferase signal returned to basal levels by 24 hours after treatment. […] (FIG. 16).
# T1 sequence (P61823 27-150): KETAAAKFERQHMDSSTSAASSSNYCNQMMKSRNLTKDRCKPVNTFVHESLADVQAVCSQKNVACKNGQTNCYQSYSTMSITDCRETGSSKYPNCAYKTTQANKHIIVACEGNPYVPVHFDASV
compound,measurement,setting,value
Cc1csc(NC(=O)CSc2nc3c(c(C(F)(F)F)c2C#N)CCC3)n1 [Compound 9389],induction of P58^IPK and DER-1 expression,"P58^IPK, DER-1",fully inhibited this response
same,degradation of the XBP-1 3′ intronic loop by RNAse A,RNAse A,failed to inhibit degradation
same,time by which XBP-luciferase signal returned to basal levels,"XBP-luciferase reporter; after treatment, 50-60 mg/kg",≤ 24 h
same,duration of XBP-luciferase reporter inhibition after the injection,XBP-luciferase reporter; single doses of 50-60 mg/kg,6 to 8 h
same,inhibition of XBP-luciferase reporter in tumors,XBP-luciferase reporter; single doses of 50-60 mg/kg,robustly inhibited
